Source: PMC10642967, “Identification of a carbohydrate recognition motif of purinergic receptors” (eLife, 2023)
Residue numbers refer to the chain shown, from its start.

What was measured:
human P2Y12 = target: T1, human P2Y12 (Homo sapiens, UniProt Q9H244); assay: Intracellular Ca2+ mobilization, HEK293 co-transfected with P2Y12 wild-type and Gαqi5; assay type: cell-based; details: calcium mobilization, HEK293, P2Y12 WT + Gαqi5, mean ± SEM
T1 construct: HA (N); expressed in transfected cells; host or cells: HEK293
T1 sequence (Q9H244 whole entry): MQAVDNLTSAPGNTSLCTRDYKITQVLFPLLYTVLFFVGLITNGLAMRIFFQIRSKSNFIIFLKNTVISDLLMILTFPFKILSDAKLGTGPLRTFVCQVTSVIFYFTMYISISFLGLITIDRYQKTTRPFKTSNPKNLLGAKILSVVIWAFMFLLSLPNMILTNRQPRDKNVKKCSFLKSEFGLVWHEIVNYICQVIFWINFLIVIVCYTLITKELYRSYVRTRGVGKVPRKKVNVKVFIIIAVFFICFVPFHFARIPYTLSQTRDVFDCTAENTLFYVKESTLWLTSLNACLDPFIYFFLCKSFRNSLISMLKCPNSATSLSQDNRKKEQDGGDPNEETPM
Procedure: (§1) Intracellular Ca^2+ assays were carried out as follows.

P2Y12-K80A = target: T2, P2Y12-K80A (Homo sapiens, UniProt Q9H244, K80A); assay: Intracellular Ca2+ mobilization, HEK293 expressing P2Y12 K80A mutant; assay type: cell-based; details: calcium mobilization, mean ± SEM
T2 construct: HA (N); expressed in transfected cells; host or cells: HEK293
T2 sequence (Q9H244 whole entry K80A): as the sequence (Q9H244 whole entry) above, with K80A counted along it
Procedure: as §1

P2Y12-D84A = target: T3, P2Y12-D84A (Homo sapiens, UniProt Q9H244, D84A); assay: Intracellular Ca2+ mobilization, HEK293 expressing P2Y12 D84A mutant; assay type: cell-based; details: calcium mobilization, mean ± SEM
T3 construct: HA (N); expressed in transfected cells; host or cells: HEK293
T3 sequence (Q9H244 whole entry D84A): as the sequence (Q9H244 whole entry) above, with D84A counted along it
Procedure: as §1

P2Y12-F277A = target: T4, P2Y12-F277A (Homo sapiens, UniProt Q9H244, F277A); assay: Intracellular Ca2+ mobilization, HEK293 expressing P2Y12 F277A mutant; assay type: cell-based; details: calcium mobilization, mean ± SEM
T4 construct: HA (N); expressed in transfected cells; host or cells: HEK293
T4 sequence (Q9H244 whole entry F277A): as the sequence (Q9H244 whole entry) above, with F277A counted along it
Procedure: as §1

P2Y12-K280A = target: T5, P2Y12-K280A (Homo sapiens, UniProt Q9H244, K280A); assay: Intracellular Ca2+ mobilization, HEK293 expressing P2Y12 K280A mutant; assay type: cell-based; details: calcium mobilization, mean ± SEM
T5 construct: HA (N); expressed in transfected cells; host or cells: HEK293
T5 sequence (Q9H244 whole entry K280A): as the sequence (Q9H244 whole entry) above, with K280A counted along it
Procedure: as §1

P2Y12-E281A = target: T6, P2Y12-E281A (Homo sapiens, UniProt Q9H244, E281A); assay: Intracellular Ca2+ mobilization, HEK293 expressing P2Y12 E281A mutant; assay type: cell-based; details: calcium mobilization, mean ± SEM
T6 construct: HA (N); expressed in transfected cells; host or cells: HEK293
T6 sequence (Q9H244 whole entry E281A): as the sequence (Q9H244 whole entry) above, with E281A counted along it
Procedure: as §1

human P2Y14 = target: T7, human P2Y14 (Homo sapiens, UniProt Q15391); assay: Intracellular Ca2+ mobilization, HEK293 co-transfected with P2Y14 wild-type and Gαqi5; assay type: cell-based; details: calcium mobilization, HEK293, P2Y14 WT + Gαqi5, mean ± SEM
T7 construct: HA (N); expressed in transfected cells; host or cells: HEK293
T7 sequence (Q15391 1-338): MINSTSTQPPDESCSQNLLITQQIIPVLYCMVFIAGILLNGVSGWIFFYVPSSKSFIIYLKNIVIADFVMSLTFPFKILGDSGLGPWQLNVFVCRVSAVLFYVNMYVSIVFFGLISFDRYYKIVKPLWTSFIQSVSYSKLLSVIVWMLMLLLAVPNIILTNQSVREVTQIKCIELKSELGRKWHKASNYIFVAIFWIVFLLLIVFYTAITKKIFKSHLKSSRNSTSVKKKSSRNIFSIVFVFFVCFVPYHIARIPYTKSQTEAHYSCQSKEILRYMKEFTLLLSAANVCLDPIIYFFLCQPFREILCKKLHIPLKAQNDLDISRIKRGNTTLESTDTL

P2Y14-K77A = target: T8, P2Y14-K77A (Homo sapiens, UniProt Q15391, K77A); assay: Intracellular Ca2+ mobilization, HEK293 expressing P2Y14 K77A mutant; assay type: cell-based; details: calcium mobilization, mean ± SEM
T8 construct: HA (N); expressed in transfected cells; host or cells: HEK293
T8 sequence (Q15391 1-338 K77A): T7 sequence (Q15391 1-338) with K77A

P2Y14-D81A = target: T9, P2Y14-D81A (Homo sapiens, UniProt Q15391, D81A); assay: Intracellular Ca2+ mobilization, HEK293 expressing P2Y14 D81A mutant; assay type: cell-based; details: calcium mobilization, mean ± SEM
T9 construct: HA (N); expressed in transfected cells; host or cells: HEK293
T9 sequence (Q15391 1-338 D81A): T7 sequence (Q15391 1-338) with D81A

P2Y14-E278A = target: T10, P2Y14-E278A (Homo sapiens, UniProt Q15391, E278A); assay: Intracellular Ca2+ mobilization, HEK293 expressing P2Y14 E278A mutant; assay type: cell-based; details: calcium mobilization, mean ± SEM
T10 construct: HA (N); expressed in transfected cells; host or cells: HEK293
T10 sequence (Q15391 1-338 E278A): T7 sequence (Q15391 1-338) with E278A

P2Y14-K277A = target: T11, P2Y14-K277A (Homo sapiens, UniProt Q15391, K277A); assay: cell-based
T11 sequence (Q15391 1-338 K277A): T7 sequence (Q15391 1-338) with K277A

| EC50 (human P2Y12) [µM] | EC50 (P2Y12-K80A) [µM] | EC50 (P2Y12-D84A) [µM] | EC50 (P2Y12-F277A) [µM] | EC50 (P2Y12-K280A) [µM] | EC50 (P2Y12-E281A) [µM] | EC50 (human P2Y14) [µM] | EC50 (P2Y14-K77A) [µM] | EC50 (P2Y14-D81A) [µM] | EC50 (P2Y14-E278A) [µM] | EC50 (P2Y14-K277A) [µM] | SMILES |
| --- | --- | --- | --- | --- | --- | --- | --- | --- | --- | --- | --- |
| 12.3 ± 0.9 | > 150 | > 150 | 128 ± 17.6 | > 150 | > 150 | – | – | – | – | – | Nc1ncnc2c1ncn2C1OC(COP(=O)(O)OP(=O)(O)OC2OC(CO)C(O)C(O)C2O)C(O)C1O (stereo not shown) [ADP-Man, ADP-mannose] |
| – | – | – | – | – | – | 0.0599 ± 0.0048 | > 3 | 0.172 ± 0.0098 | 0.0382 ± 0.0022 | > 3 | O=C(O)C1OC(OP(=O)(O)OP(=O)(O)OCC2OC(n3ccc(=O)[nH]c3=O)C(O)C2O)C(O)C(O)C1O (stereo not shown) [UDP-GlcA, UDP-glucuronic acid] |
| – | – | – | – | – | – | 0.184 ± 0.0118 | > 3 | 3 ± 0.174 | 0.624 ± 0.102 | 0.549 ± 0.0744 | CC(=O)N[C@H]1[C@@H](OP(=O)(O)OP(=O)(O)OC[C@H]2O[C@@H](n3ccc(=O)[nH]c3=O)[C@H](O)[C@@H]2O)O[C@H](CO)[C@@H](O)[C@@H]1O [UDP-GlcNAc, UDP-N-acetylglucosamine] |

More lines, now with the values behind:

| SMILES | EC50 (human P2Y12) [µM] | EC50 (P2Y12-K80A) [µM] | EC50 (P2Y12-D84A) [µM] | EC50 (P2Y12-F277A) [µM] | EC50 (P2Y12-K280A) [µM] | EC50 (P2Y12-E281A) [µM] | EC50 (human P2Y14) [µM] | EC50 (P2Y14-K77A) [µM] | EC50 (P2Y14-D81A) [µM] | EC50 (P2Y14-E278A) [µM] | EC50 (P2Y14-K277A) [µM] |
| --- | --- | --- | --- | --- | --- | --- | --- | --- | --- | --- | --- |
| Nc1ncnc2c1ncn2C1OC(COP(=O)(O)OP(=O)(O)OC2OC(CO)C(O)C(O)C2O)C(O)C1O (stereo not shown) [ADP-Glc, ADP-glucose] | 3.4 ± 0.4 | 96.9 ± 14.4 | 29.3 ± 1.2 | 15.4 ± 1.1 | 41.8 ± 3 | 75.3 ± 10.1 | – | – | – | – | – |
| Nc1ncnc2c1ncn2C1OC(COP(=O)(O)OP(=O)(O)OC2OC(C(=O)O)C(O)C(O)C2O)C(O)C1O (stereo not shown) [ADP-GlcA, ADP-glucuronic acid] | 1.3 ± 0.1 | 35.2 ± 0.5 | 9.4 ± 0.3 | 5 ± 0.4 | 18.1 ± 3.3 | 28.2 ± 4.1 | – | – | – | – | – |
